3 molecules from patent US20120046331A1, “Antifungal Agents and Uses Thereof” (priority 2010, published 2012) can be followed below.

For assay [1], the system named is E. floccosum. The assay is described as follows: Checkerboard combination testing of compound 8 with antifungals, FIC (Example 1). It counts as cell-based, Epidermophyton floccosum. The note with it: in combination with Cpd 8, one value per clinical isolate (Strain # 1-6). The protocol:
(§1) This example describes the in vitro activity of combinations of compounds according to the present invention and antifungal agents against a collection of dermatophytic fungal pathogens. Antifungal susceptibility testing was adapted from the CLSI M38-A broth microdilution method for dermatophytes (NCCLS-M38-A2 2008). Combination testing was performed by checkerboard method (with compound 8 in combination with fluconazole, itraconazole or terbinafine). A total of 30 isolates of 5 different fungal species were tested in the combination test: 6 isolates each of Trichophyton tonsurans, Trichophyton rubrum, Epidermophyton floccosum, Trichophyton mentagrophytes and Microsporum canis. Clinical isolates were obtained by the Laboratory of Dr. M. Ghannoum at Case Western University.
Synergy was assessed using the fractional inhibitory concentration (FIC), an interaction coefficient, with the following definitions:
The fold reduction of the itraconazole minimum inhibitory concentration (MIC) was also evaluated.

Assay [2] relates to T. rubrum. The assay is described as follows: MIC testing, modified CLSI M38-A2 for dermatophytes (Example 2). It counts as cell-based, Trichophyton rubrum. The note with it: for MIC50: lowest concentration to inhibit 50% of the strains tested, n = 20.
The subject of assay [3] is T. tonsurans. The assay is described as above. It counts as cell-based. The conditions noted are these: n = 5 strains; for MIC50 / MIC90: Trichophyton tonsurans. The protocol:
(§2) MIC testing was performed according to the modification of the CLSI M38-A2 standard for dermatophytes developed at the Center (CLSI. Reference Method for Broth Dilution Antifungal Susceptibility Testing of Filamentous Fungi; Approved Standard-Second Edition. CLSI document M38-A2 [ISBN 1-56238-668-9]. CLSI, 940 West Valley Road, Suite 1400, Wayne, Pa. 19087-1898 USA, 2008; Ghannoum M A, et al. Intra- and Interlaboratory Study of a Method for Testing the Antifungal Susceptibilities of Dermatophytes. 2004 J Clin Microbiol 42:(7): 2977-2979). Compound 8 and fluconazole were tested in combination using a checkerboard microdilution method. The interaction between Compound 8 and fluconazole was determined by FIC Index, or Fractional Inhibitory Concentration Index, which assigns a numerical value to the interaction of the two antifungals.

Assay [4] relates to T. mentagrophytes. Described as above. It counts as cell-based. The conditions noted are these: n = 5 strains; for MIC50 / MIC90: Trichophyton mentagrophytes. The protocol:
as §2

Assay [5] deals with panel of clinical isolates of 5 common dermatophytic fungi. The experiment in a line: Checkerboard combination testing, whole panel (Example 1). The note with it: terbinafine alone; reason why synergy could not be determined. It counts as cell-based. The protocol:
as §1
Synergy was assessed using the fractional inhibitory concentration (FIC), an interaction coefficient, with the following definitions: […]

Setting [6] is: Trichophyton rubrum, read-out: MIC50.
Setting [7] is: Trichophyton rubrum, n = 20 strains.

SMILES strings stand for the structures. Values after ≈ are worked out from the molar mass of the structure shown. “Also recorded” adds a separate entry of the source. Like-named read-outs stand apart in the source and are kept apart here.

Turning to `CCC(C)n1ncn(-c2ccc(N3CCN(c4ccc(OCC5COC(Cn6cncn6)(c6ccc(Cl)cc6Cl)O5)cc4)CC3)cc2)c1=O` (stereo not drawn) [Itraconazole, itraconazole, reference compound], in assay [1] (Epidermophyton floccosum, read-out: Itraconazole MIC with Cpd 8), the MIC – broadly, the lowest concentration found to suppress growth – came to 0.015 µg/mL. In addition, the “Itraconazole MIC with Cpd 8” value in assay [1] was found to be 0.008 µg/mL.
On to `CN(C/C=C/C#CC(C)(C)C)Cc1cccc2ccccc12` [Terbinafine, terbinafine], for which the MIC50 (usually an inhibitory concentration at the 50% level, which refers to growth in some studies and to a panel of isolates in others) in assay [2] (setting [6]) came to 0.016 µg/mL (≈ 0.0549 µM); in assay [3], 0.002 µg/mL; in assay [4], 0.008 µg/mL. In addition, the MIC90 (as a rule, the lowest concentration that inhibits either 90% of growth or 90% of the strains tested, depending on the study) in assay [2] (setting [7]) was found to be 8 µg/mL (≈ 27.5 µM); in assay [3], 0.002 µg/mL; in assay [4], 0.016 µg/mL. Moreover, the “MIC Range” value lay within 0.001 to 0.016 µg/mL in assay [3] and 0.004 to 0.016 µg/mL in assay [4]. In addition, the “Potency (MIC) of terbinafine, in words” value in assay [5] is listed as “extremely low MIC; also recorded: † = synergy could not be determined because of the high potency (extremely low MIC) of terbinafine”.
As for `OC(Cn1cncn1)(Cn1cncn1)c1ccc(F)cc1F` [Fluconazole, fluconazole], the MIC50 in assay [2] (setting [6]) came out at 1 µg/mL (≈ 3.27 µM); in assay [2] it was 1 µg/mL (≈ 3.27 µM); in assay [3], 2 µg/mL; in assay [4], 16 µg/mL. Besides, the MIC90 in assay [2] (setting [7]) was 1 µg/mL (≈ 3.27 µM); in assay [3] it was 4 µg/mL; in assay [4], 16 µg/mL. In addition, the figures for the “MIC Range” value in assay [2] (n = 20 strains), in assay [3] and in assay [4] were 0.25 to 4.0 µg/mL, 1.0 to 4.0 µg/mL and 2.0 to 16.0 µg/mL, respectively.
